Data published in US6458764B1, “GRF analogs with increased biological potency” (Theratechnologies Inc., priority 1995, dated 2002).
Where no end group is shown, it is not given here. The star is where a group is joined. Hexenoyl(3E) = CC/C=C/CC(=O)*

Key:
[1] = tested on: IGF-1 levels in pig sera; assay: Effect of hGRF(1-44)NH2 analogs on IGF-1 levels following S.C. chronic administration in growing male pigs (Example XI, IRMA); format: in vivo
Protocol: The objective of this experiment was to compare the effects of 8 different hGRF(1-44)NH2 analogues including TH 9507 on IGF-1 levels following S.C. chronic administration in growing male pigs.
Animal procedures were conducted as described in the protocol GRF-30 submitted Apr. 30, 1999, with the following modification: only 8 GRF analogues, including TH 9507, were provided by the sponsor. Accordingly, the study was performed on 30 pigs.
Laboratory procedures were conducted as follow: IGF-l levels were measured in pig sera using a commercial kit (DSL-5600) purchased from Diagnostic Systems Laboratories Inc., Tex., USA. Briefly, IGF-1 levels are quantified using a two-site immunoradiometric assay (IRMA) following acid-ethanol extraction.
Statistical analysis: IGF-1 data were subjected to a two-way repeated measures analysis of variance, with time (day 1, 3 or 6) and treatments (A to J) as variation factors pairwise multiple comparison procedures were then run by the Student-Newman-Keuls method. All statistical procedures were performed using the computerized SigmaStat software (Jandel Scientific). A P<0.05 was considered statistically significant.

[2] = tested on: serum IGF-I; assay: Repeated S.C. administrations of GRF analogs, serum IGF-I levels in pigs (Example I, Experiments 1-3; radioimmunoassay); format: in vivo, pigs (Landrace x Yorkshire); details: for serum IGF-I, Day 1 (pretreatment): pretreatment baseline
Protocol: The objective of these experiments was to assess the potential of the GRF analogs as anabolic agents.
Therefore, in order to investigate the anabolic potency of the fatty acid-GRF analogs, their ability to increase IGF-I levels following repeated S.C. administrations in pig was evaluated.
26 Landrace x Yorkshire castrated male pigs (40-45 kg BW) were randomly distributed into 4 experimental groups:
Each animal was injected BID (twice a day) subcutaneously for 4 consecutive days. One blood sample was collected each morning prior to the first injection of the day, and the day after the last injection, for IGF-I measurement.
40 Landrace x Yorkshire castrated male pigs (40-45 kg BW) were randomly distributed into 5 experimental groups:
(§1) Each animal was injected BID (twice a day) subcutaneously for 5 consecutive days. One blood sample was collected each morning prior to the first injection of the day, and the day after the last injection, for IGF-I measurement.
48 Landrace x Yorkshire castrated male pigs (40-45 kg BW) were randomly distributed into 6 experimental groups:
as §1, with “The selected doses were 30 μg/kg for hGRF(1-44)NH2 analogs and 20 μg/kg for hGRF(1-29)NH2 analogs, which give identical doses on a molar basis. Each” for “Each”, “measurements.” for “measurement.”
IGF-I levels were measured in pig serum by double antibody radioimmunoassay after formic acid-acetone extraction, as previously described (Abribat T. et al., 1993, J. Endocrinol., 39:583-589). The extraction prior to radioimmunoassay is a necessary step to remove endogenous IGF-binding proteins.
In both experiments, the IGF-I data were analyzed by a two way repeated measure analysis of variance, with day and treatment (GRF analog) as sources of variation. Multiple comparison procedures were there run (Student-Newman Keuls method). A P<0.05 was considered as statistically significant.

[3] = tested on: pig serum GH; assay: Intravenous GH-releasing potency in pigs (Example III); format: in vivo, pigs (Landrace x Yorkshire); details: 4 μg/kg
Protocol: This experiment was conducted to test the I.V. acute GH-releasing potency of (Hexenoyl trans-3)0 hGRF (1-29) NH2, a GRF analog, in a model physiologically close to human and to compare it to that of hGRF(1-29)NH2.
(Hexenoyl trans-3)0 hGRF (1-29) NH2 is a combination of the natural hGRF(1-29)NH2 and natural fatty acids. This study was a multidose, single I.V. injection study.
ADMINISTRATION: intravenous acute injection.
(§2) TEST SYSTEM: Landrace x Yorkshire pigs.
DESIGN: […] pigs (4 spare animals) were cannulated (a catheter surgically implanted in one jugular vein) within on week, before the study. On days 1 and 7, cannulated animals were randomly distributed into 7 groups (n=4 pigs per group).
Blood samples for pGH assay were collected every 20 min from 1 hour before to 5 hours after GRF injections, with additional samplings 10 and 30 min after injection (n=21 samples). Blood samples are allowed to clot at +4° C. Serum will be harvested by centrifugation, stored at −20° C. and submitted to pGH assays.

[4] = tested on: pig serum GH; assay: Subcutaneous GH-releasing potency in pigs (Example IV); format: in vivo, pigs (Landrace x Yorkshire); details: for effect on GH area under the curve, 0 to 420 minutes following injection: S.C., FIG. 5
Protocol: This experiment was conducted to test the S.C. acute GH-releasing potency of (Hexenoyl trans-3)0 hGRF (1-29) NH2, a GRF analog, in a model physiologically close to human and to compare it to that of hGRF(1-29)NH2.
ADMINISTRATION: Subcutaneous acute injection.
as §2
DESIGN: Thirty six (36) pigs (4 spare animals) were cannulated (a catheter surgically implanted in one jugular vein) within one week, before the study. On days 1 and 7, cannulated animals were randomly distributed into 8 groups (n=4 pigs per group).
Blood samples for pGH assay were collected every 20 min from 1 hour before to 7 hours after GRF injections, (n=25 samples). Blood samples were allowed to clot at +4CC. Serum is harvested by centrifugation, stored at −20° C. and submitted to pGH assays.

[5] = metabolites have no residual biological activity; cited from earlier work
[6] = Experiment 1, 20 μg/kg BID SC × 4 days, mean of 6 to 7
[7] = Experiment 2, 40 μg/kg BID SC × 5 days, mean of 8
[8] = Experiment 3, 30 μg/kg BID SC × 5 days, mean of 8

In the case of “TH 9507: one of 8 different hGRF(1-44)NH2 analogues provided by the sponsor; structure not stated ({Hexenoyl(3E)}-YADAIFTNSYRKVLGQLSARKLLQDIMSRQQGESNQERGARARL-NH2)”, the “IGF-1 levels on day 6 compared to basal levels on day 1” value ([1]; S.C. chronic administration in growing male pigs, FIG. 7) is reported as “significantly increased IGF-1 levels” and the “IGF-1 levels following 5 days of injection” value ([1]; S.C. chronic administration in growing male pigs, saline group 190.1±21.0 ng/ml) is reported as 279.1 ± 28.4 ng/mL.
With “hGRF (1-29)NH2 [hGRF(1-29)NH2, reference compound]” the “effect on IGF-I levels” value ([2]; Experiment 1, 20 μg/kg BID SC × 4 days) was “ineffective”, the “effect on IGF-I levels” value ([2]; Experiment 1, 20 μg/kg BID SC × 4 days, listed as Human GRF(1-29)NH2) was “no effect on IGF-I levels” and the “serum IGF-I, Day 2” value [2, 6] was 235 ng/mL. For the same substance, the “serum IGF-I, Day 3” value [2, 6] was 263 ng/mL, the “serum IGF-I, Day 4” value [2, 6] was 258 ng/mL and the “serum IGF-I, Day 5” value [2, 6] was 262 ng/mL. The “serum IGF-I, Day 1 (pretreatment)” value [2, 6] was 252 ng/mL, the “serum IGF-I levels” value ([2]; Experiment 2, 40 μg/kg BID SC × 5 days) was “remained stable” and the “serum IGF-I, Day 2” value [2, 7] was 243 ng/mL. The “serum IGF-I, Day 3” value [2, 7] was 267 ng/mL, the “serum IGF-I, Day 4” value [2, 7] was 275 ng/mL and the “serum IGF-I, Day 5” value [2, 7] was 267 ng/mL. The “serum IGF-I, Day 6” value [2, 7] was 256 ng/mL, the “serum IGF-I, Day 1 (pretreatment)” value [2, 7] was 244 ng/mL and the “effect on GH area under the curve (0 to 300 minutes following injection)” value ([3]; I.V., FIG. 3) was “significant effect on GH secretion”. The “duration of GH release following injection” value ([3]; one intravenous injection, FIG. 2) was “approximately 60 minutes”, the “effect on GH area under the curve, 0 to 420 minutes following injection” value (from here on “effect … to 420 minutes following injection”) ([4]; 1.25 μg/kg) was “did not induce any significant GH response” and the “effect … to 420 minutes following injection” value ([4]; 5 μg/kg) was “did not induce any significant GH response”. For the same substance, the “effect … to 420 minutes following injection” value ([4]; 20 μg/kg) was “did not induce any significant GH response”, the “duration of GH response following administration” value ([4]; one subcutaneous injection, 5 μg/kg, FIG. 4) was at most 60 min and the “degradation in a serum medium” value [5] was “rapidly degraded”.
With “hGRF(1-44)NH2 (YADAIFTNSYRKVLGQLSARKLLQDIMSRQQGESNQERGARARL-NH2) [reference compound]” the “effect on IGF-I levels” value ([2]; Experiment 3, 30 μg/kg BID SC × 5 days, except a significant effect on day 5, not sustained on day 6) was “little or no effect on IGF-I levels”, the “serum IGF-I, Day 2” value [2, 8] was 254 ng/mL and the “serum IGF-I, Day 3” value [2, 8] was 285 ng/mL. The “serum IGF-I, Day 4” value [2, 8] was 297 ng/mL, the “serum IGF-I, Day 5” value [2, 8] was 303 ng/mL and the “serum IGF-I, Day 6” value [2, 8] was 296 ng/mL. For the same substance, the “serum IGF-I, Day 1 (pretreatment)” value [2, 8] was 245 ng/mL and the “variations of IGF-1 concentrations in the study period” value ([1]; injected subcutaneously in pigs twice a day at 10 ug/kg, FIG. 7) was “not able to induce any significant increase in IGF-1 levels”.
